Source: US20150238487A1, “NOVEL ERGOLINE DERIVATIVES AND USES THEREOF” (MAP Pharmaceuticals, Inc., priority 2012, published 2015)

Columns and labels:
Adrenergic α2A = molecular target: T1, Adrenergic α2A (Homo sapiens, UniProt P08913); assay: GTPγ[35S] assay, Adrenergic α2A; assay type: biochemical; settings: antagonism, CHO-K1 membranes, read-out: Activity (Antagonism: IC50), Adrenergic a2A
T1 construct: expressed in transfected cells; host or cells: CHO-K1 (membrane extracts)
Method: (§1) Receptor […] activity assays were performed using 8′OH-2-CF3-dihydroergotamine (8′OH-2-CF3-DHE). Table 1 summarizes the cell lines (CHO-K1/HEK293 transfected with relevant human receptor) and the assays performed to detect any agonist or antagonist activity.
GTPγS studies were conducted to monitor agonist activity for 8′OH-2CF3-dihydroergotamine (8′OH-2CF3-DHE) against the receptors indicated in Table 1 above. Reagents used were the following: Assay buffer (20 mM HEPES, pH 7.4; 100 mM NaCl; 10 μg/mL saponin; 30 mM MgCl2); Membranes (recombinant human receptor membrane extracts were thawed on ice and diluted in assay buffer to give 1000 μg/mL ([…]) and kept on ice); GDP (diluted in assay buffer to give 30 μM solution (3 μM final concentration); beads (PVT-WGA (Amersham, RPNQ001), diluted in assay buffer at 25 mg/mL (0.25 mg/10 μL)); GTPγ^35S (Perkin Elmer, NEG030X), diluted in assay buffer to give 0.1 nM (final concentration); and ligand (agonist/antagonist diluted in assay buffer).
Membranes were mixed with GDP (1:1) and incubated for at least 15 minutes on ice. In parallel GTPγ^35S was mixed with the beads (1:1) just before starting the reaction. […] The plates were then centrifuged for 10 minutes at 2000 rpm and incubated at room temperature for 1 hour and counted for 1 min/well with a Perkin Elmer TopCount reader.

Serotonin 5-HT1F = molecular target: T2, Serotonin 5-HT1F (Homo sapiens, UniProt P30939); assay: cAMP HTRF assay, Serotonin 5-HT1F; assay type: cell-based; settings: CHO-K1, cAMP
T2 construct: expressed in transfected cells; host or cells: CHO-K1
T2 sequence (P30939 whole entry): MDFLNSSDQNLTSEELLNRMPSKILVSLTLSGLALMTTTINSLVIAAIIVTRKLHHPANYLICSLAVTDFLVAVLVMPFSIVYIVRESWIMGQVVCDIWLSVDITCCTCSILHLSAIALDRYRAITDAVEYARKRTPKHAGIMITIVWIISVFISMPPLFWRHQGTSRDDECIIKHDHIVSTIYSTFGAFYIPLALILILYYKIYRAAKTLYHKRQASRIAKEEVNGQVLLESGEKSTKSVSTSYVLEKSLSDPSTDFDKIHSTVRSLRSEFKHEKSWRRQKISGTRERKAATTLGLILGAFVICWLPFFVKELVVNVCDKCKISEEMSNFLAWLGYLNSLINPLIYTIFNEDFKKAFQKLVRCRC
Method: as §1
(§2) cAMP HTRF (Gi) studies were conducted to monitor activity for 8′OH-2CF3-dihydroergotamine (8′OH-2CF3-DHE) against the receptors indicated in Table 1 above. Cells expressing the human recombinant receptor of interest were grown in media without antibiotic and detached by gentle flushing with PBS-EDTA (5 mM EDTA), recovered by centrifugation and resuspended in assay buffer (KRH: 5 mM KCl, 1.25 mM MgSO4, 124 mM NaCl, 25 mM HEPES, 13.3 mM glucose, 1.25 mM KH2PO4, 1.45 mM CaCl2, 0.5 g/L BSA). Dose response curves were performed in parallel with the reference compounds. For agonist tests (96-well plates), 12 μL of cells was mixed with 6 μL of the test compound at increasing concentrations and 6 μL of forskolin and then incubated for 30 minutes at room temperature. Lysis buffer was added and after a 1 hour incubation, cAMP concentrations was determined according to the manufacturer specification with the HTRF kit. […] Lysis buffer was added and after a 1 hour incubation, cAMP concentrations were determined according to the manufacturer specification, with the HTRF kit.

Adenosine A2a = molecular target: T3, Adenosine A2a (Homo sapiens, UniProt P29274); assay: cAMP HTRF assay, Adenosine A2a; assay type: cell-based; settings: agonism; HEK293, cAMP
T3 construct: expressed in transfected cells; host or cells: HEK293
T3 sequence (P29274 whole entry): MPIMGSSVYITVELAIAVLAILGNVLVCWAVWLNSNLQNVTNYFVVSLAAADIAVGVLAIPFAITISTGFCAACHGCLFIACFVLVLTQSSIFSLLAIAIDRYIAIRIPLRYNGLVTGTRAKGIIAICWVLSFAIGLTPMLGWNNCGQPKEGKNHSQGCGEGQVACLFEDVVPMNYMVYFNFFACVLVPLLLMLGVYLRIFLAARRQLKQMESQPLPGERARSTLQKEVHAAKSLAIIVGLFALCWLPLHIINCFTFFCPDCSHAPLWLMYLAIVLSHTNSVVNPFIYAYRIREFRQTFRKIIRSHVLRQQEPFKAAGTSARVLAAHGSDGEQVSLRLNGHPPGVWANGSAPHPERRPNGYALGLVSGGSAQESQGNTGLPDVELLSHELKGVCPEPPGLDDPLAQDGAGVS
Method: as §1
as §2, with “HTRF (Gs)” for “HTRF (Gi)”, “with 12” for “with 6”, “concentrations” for “concentrations and 6 μL of forskolin”

Adrenergic α1B = molecular target: T4, Adrenergic α1B (Homo sapiens, UniProt P35368); assay: Aequorin assay, Adrenergic α1B; assay type: cell-based; settings: antagonism, CHO-K1 mAeq, read-out: Activity (Antagonism: IC50), Adrenergic a1B
T4 construct: expressed in transfected cells; host or cells: CHO-K1 mAeq
T4 sequence (P35368 whole entry): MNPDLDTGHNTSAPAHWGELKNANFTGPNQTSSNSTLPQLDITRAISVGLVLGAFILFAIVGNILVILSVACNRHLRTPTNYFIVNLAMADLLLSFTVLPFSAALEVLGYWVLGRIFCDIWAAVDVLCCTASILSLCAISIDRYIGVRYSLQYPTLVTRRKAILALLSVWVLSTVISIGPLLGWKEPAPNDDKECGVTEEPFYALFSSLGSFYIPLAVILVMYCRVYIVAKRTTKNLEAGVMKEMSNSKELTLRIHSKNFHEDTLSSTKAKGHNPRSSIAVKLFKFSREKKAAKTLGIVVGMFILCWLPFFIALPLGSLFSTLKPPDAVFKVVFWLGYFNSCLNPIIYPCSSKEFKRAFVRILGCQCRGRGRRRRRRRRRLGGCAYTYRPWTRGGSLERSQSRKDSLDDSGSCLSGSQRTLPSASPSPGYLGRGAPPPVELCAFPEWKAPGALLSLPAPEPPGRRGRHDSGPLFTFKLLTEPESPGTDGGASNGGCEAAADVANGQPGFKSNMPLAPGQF
Method: as §1
Aequorin assays were conducted to monitor activity for 8′OH-2CF3-dihydroergotamine (8′OH-2CF3-DHE) against the receptors indicated in Table 1 above (except for mGlu3 and mGlu5). CHO-K1 cells coexpressing mitochondrial apoaequorin and the recombinant human receptor of interest were grown to mid-log phase in culture media without antibiotics and then detached with PBS-EDTA, centrifuged and resuspended in assay buffer (DMEM/HAM's F12 with HEPES, without phenol red+0.1% BSA, protease free) at a concentration of 1×10^6 cell/mL. […]
50 μL of the cell suspension was mixed with 50 μL of test or reference agonist in a 96-well plate. The resulting emission of light was recorded using Hamamatsu Functional Drug Screening System 6000 (FDSS 6000) luminometer. […]
To standardize the emission of recorded light (and determine of the “100% signal”) across plates and across different experiments, some wells contained 100 μM digitonin or a saturating concentration of ATP (20 μM).

T1 sequence (P08913 whole entry): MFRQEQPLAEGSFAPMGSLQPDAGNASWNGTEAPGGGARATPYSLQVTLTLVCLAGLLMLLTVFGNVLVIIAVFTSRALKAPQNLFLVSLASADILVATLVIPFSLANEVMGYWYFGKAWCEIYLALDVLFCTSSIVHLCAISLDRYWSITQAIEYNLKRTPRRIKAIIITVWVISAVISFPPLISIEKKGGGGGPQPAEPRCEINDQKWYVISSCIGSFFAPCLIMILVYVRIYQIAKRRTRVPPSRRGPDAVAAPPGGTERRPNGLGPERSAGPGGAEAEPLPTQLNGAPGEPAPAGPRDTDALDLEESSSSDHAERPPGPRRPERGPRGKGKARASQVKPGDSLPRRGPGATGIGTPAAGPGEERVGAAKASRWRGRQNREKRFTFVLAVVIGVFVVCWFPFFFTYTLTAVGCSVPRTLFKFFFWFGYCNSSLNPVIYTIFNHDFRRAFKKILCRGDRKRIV

In the case of CN1C[C@H](C(=O)N[C@]2(C)O[C@@]3(O)[C@@H]4CC[C@@H](O)N4C(=O)[C@H](Cc4ccccc4)N3C2=O)C[C@@H]2c3cccc4[nH]c(C(F)(F)F)c(c34)C[C@H]21 [8′OH-2-CF3-DHE, 8′-Hydroxy-2-CF3-dihydroergotamine], the IC50 (Adrenergic α2A) is reported as 149 nM, the “Activity (Agonism: EC50; Antagonism: IC50), 5-HT1F” value (Serotonin 5-HT1F) is reported as “Inactive” and the EC50 (Adenosine A2a) is reported as 5.27 nM. It also gave an Emax (Adenosine A2a) of 25% and an IC50 (Adrenergic α1B) of 10.9 nM.
